These results are taken from paper PMC4055595, “Pharmacokinetic Compatibility of Ginsenosides and Schisandra Lignans in Shengmai-san: From the Perspective of P-Glycoprotein” (PLoS ONE, 2014).

The target of one data set is P-gp (MDR1) (Homo sapiens, UniProt P08183). In words: Transport of digoxin and ginsenosides across L-MDR1 cell monolayers (efflux ratio). The format is in vitro ADME. To be noted: human, read-out: Efflux ratio (Papp BL-AP / Papp AP-BL). Here is the method: (§1) LLC-PK1 cells, a cell line lacking P-gp, and the derived cell line L-MDR1, which over-express human MDR1-encoded P-gp, were grown in minimum essential medium with supplements at 37°C, 5% CO2, and 95% humidity. LLC-PK1 and L-MDR1 cells were seeded at a density of 12×10^6 cells per 150-cm^2 flask and grown for 7 days in medium 199 supplemented with 2 mM glutamine, 10% fetal bovine serum, 10 mg/500 mL of streptomycin, and 10,000 IU/500 mL of penicillin. To ensure a constant expression level of transport protein, L-MDR1 cells were grown in the presence of 640 nM vincristine. Cells were grown as monolayer on polycarbonate membrane filters (Transwell; Costar Corporation, Cambridge, MA) as outlined previously. Transepithelial resistance was measured in each well using a Millicell ERS ohmmeter (Millipore, Bedford, MA); wells registering a resistance of 200 ohms or greater, after correcting for the resistance obtained in control blank wells, were used in the transport experiments.
P-gp (MDR1), sequence (P08183 whole entry): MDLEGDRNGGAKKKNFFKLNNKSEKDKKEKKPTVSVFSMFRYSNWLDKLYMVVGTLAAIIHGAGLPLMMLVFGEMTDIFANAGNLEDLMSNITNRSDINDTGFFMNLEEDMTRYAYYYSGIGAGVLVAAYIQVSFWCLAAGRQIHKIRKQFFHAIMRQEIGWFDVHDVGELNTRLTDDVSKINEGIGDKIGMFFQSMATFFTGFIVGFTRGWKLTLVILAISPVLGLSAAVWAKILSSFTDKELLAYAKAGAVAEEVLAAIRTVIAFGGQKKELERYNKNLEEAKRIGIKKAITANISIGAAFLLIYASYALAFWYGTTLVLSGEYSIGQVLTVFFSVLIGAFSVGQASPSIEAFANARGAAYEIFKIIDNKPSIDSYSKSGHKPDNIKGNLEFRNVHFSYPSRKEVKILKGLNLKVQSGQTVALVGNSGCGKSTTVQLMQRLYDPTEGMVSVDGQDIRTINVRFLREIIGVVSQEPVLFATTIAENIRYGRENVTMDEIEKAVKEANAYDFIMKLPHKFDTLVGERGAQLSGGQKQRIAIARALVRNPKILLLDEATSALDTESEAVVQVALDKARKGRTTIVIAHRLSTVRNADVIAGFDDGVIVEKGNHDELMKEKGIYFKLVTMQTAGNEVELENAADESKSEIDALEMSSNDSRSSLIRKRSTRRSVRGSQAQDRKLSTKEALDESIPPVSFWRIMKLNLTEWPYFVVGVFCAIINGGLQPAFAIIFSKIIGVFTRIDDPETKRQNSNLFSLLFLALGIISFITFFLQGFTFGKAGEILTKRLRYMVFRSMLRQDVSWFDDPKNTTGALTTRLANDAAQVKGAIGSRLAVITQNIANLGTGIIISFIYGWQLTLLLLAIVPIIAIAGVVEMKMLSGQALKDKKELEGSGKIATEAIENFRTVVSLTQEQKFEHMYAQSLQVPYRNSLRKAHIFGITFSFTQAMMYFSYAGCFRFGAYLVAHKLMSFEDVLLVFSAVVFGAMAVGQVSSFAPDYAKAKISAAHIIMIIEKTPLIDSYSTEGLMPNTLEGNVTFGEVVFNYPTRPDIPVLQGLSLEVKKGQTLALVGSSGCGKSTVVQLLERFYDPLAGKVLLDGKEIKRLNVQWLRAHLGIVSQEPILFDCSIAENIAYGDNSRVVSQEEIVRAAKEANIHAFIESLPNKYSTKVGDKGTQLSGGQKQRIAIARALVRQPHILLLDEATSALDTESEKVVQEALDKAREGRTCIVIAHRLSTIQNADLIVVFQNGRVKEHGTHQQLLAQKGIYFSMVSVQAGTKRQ
The LLC-PK1 and L-MDR1 cells were washed with warm Hank's balanced salt solution HBSS (pH 7.4) twice before transport experiment. HBSS containing verapamil (10 µM), SLE (2.0 and 10.0 µg/mL) or blank HBSS (control) was then loaded into both apical and basolateral chambers. After incubation at 37°C for 1.5 h, GE (100 µg/mL) was added to either the apical or basolateral side to evaluate the transport in absorptive and secretive directions, respectively. The cell monolayer was then incubated for another 2 h. Finally, the concentrations of ginsenosides were determined by LC/MS. All experiments were conducted in triplicate.
For the transport assay, the apparent permeability (P app, cm/s) in each direction (A→B and B→A) was calculated as follows, where A is the surface area of the membrane inserts (0.0804 cm^2), C 0 is the initial concentration of the compound applied in the donor compartment (2 µM), and △Q is the amount (micromoles) of compound transported over time △t (5 h = 18,000 s): [drawing 1]
The efflux ratio (ER) was a dimensionless number calculated as the ratio of the apparent permeability in the B→A direction divided by the apparent permeability in the A→B direction. [drawing 2]

Data set [1] has as its target human MDR1-encoded P-gp (L-MDR1 cells) (Homo sapiens, UniProt P08183). In words: Uptake (intracellular concentration) of digoxin and ginsenosides in L-MDR1 cells. The data set is classed as in vitro ADME. On the procedure:
as §1
LLC-PK1 and L-MDR1 cells were incubated with SLE (2.0 and 10.0 µg/mL) or verapamil (10 µM) for 1.0 h, and then were washed to discard SLE or verapamil before adding 100 µg/mL of GE. The accumulation of GE lasted for 2 h, and the intracellular concentrations of ginsenosides were measured by LC/MS. All experiments were conducted in triplicate.

The next data set deals with Caco-2 cells. Briefly: Uptake of digoxin and ginsenosides in Caco-2 cells. The format is in vitro ADME, human. The following applies: for Effect of verapamil on uptake: 10 µM verapamil. Here is the method:
Caco-2 cells were purchased from American Type Culture Collection (Manassas, VA), and were routinely cultured in Dulbecco's modified Eagle's medium supplemented with 10% fetal bovine serum, 1% nonessential amino acids, 1 mM sodium pyruvate, and 100 U/mL penicillin and streptomycin (Invitrogen, Carlsbad, CA). The cells were grown in an atmosphere of 5% CO2 at 37°C, and cell medium was changed every other day. Cells were seeded at a density of 4×10^4 cells per well in 24-well microporous polycarbonate insert filter plates (0.4-µm pore size) (Corning Costar plates; Corning Life Sciences, Lowell, MA) and grown for 15 days in Caco-2 growth medium. The medium was replaced every 3 to 4 days. Before running the assay, the culture medium was replaced by HBSS buffer supplemented with 10 mM Hepes and 20 mM glucose.
Caco-2 cells were incubated with SLE (2.0 and 10.0 µg/mL) or verapamil (10 µM) for 1.0 h. Then the cells were washed with Hank's to discard SLE or verapamil before the addition of GE (100 µg/mL). The accumulation of ginsenosides lasted for 2 h, and the intracellular concentrations of ginsenosides were measured by LC/MS. All experiments were conducted in triplicate.

The nature of data set [2]: Rat plasma pharmacokinetics after 10-day vehicle/SLE and digoxin or GE. The data set is classed as in vivo, Sprague-Dawley rats. The following applies: for AUC(0-inf): read-out: AUCINF_obs; for MRT inf: read-out: MRTINF_obs. Here is the method: This study was carried out in strict accordance with the recommendations in the Guide for the Care and Use of Laboratory Animals of the National Institutes of Health. The protocol was approved by the Committee on the Ethics of Animal Experiments of the China Pharmaceutical University. All surgery was performed under sodium pentobarbital anesthesia, and all efforts were made to minimize suffering. […] The rats were fed with standard laboratory food and water and fasted overnight but with free access to water before the test. To evaluate the effect of long-term treatment with SLE on the pharmacokinetics of ginsenosides, 24 rats were also divided into four groups (group I∼ group IV) with 6 animals each. […] On the 11th day, digoxin was administered intragastrically to rats (group I and group II) at a single dose of 0.5 mg/kg, GE was administered intragastrically to rats (group III and group IV) at a single dose of 120 mg/kg. […] Plasma was obtained by centrifugation at 5000 g for 10 min and stored at −20°C before analysis. The plasma / cell samples were extracted using a liquid–liquid extraction technique. To each tube containing 100 µL plasma, 10 µL internal standard (digoxin, 1.0 µg/mL) and 1.0 mL of n-butanol were added. The mixture was then vortex-extracted for 2 min, and centrifuged for 10 min at 10,000 g. […] The plasma concentration-time curves of ginsenosides in rats were obtained by plotting the mean plasma concentrations versus time. Pharmacokinetic parameters were calculated using the WinNonlin 6.3 program (Pharsight Inc., Mountain View, CA). The elimination half-life (t 1/2) value was calculated as 0.693/β, where β is the elimination rate constant calculated from the terminal linear portion of the log plasma concentration-time curve. The total areas under the plasma concentration- time curve from time 0 to the last quantifiable time point (AUC0-t) and from time 0 to infinity (AUC0-∞) were calculated using the log trapezoidal rule. [drawing 3] The maximum plasma concentrations (C max) for ginsenosides were obtained by visual inspection of the plasma concentration-time curve, whereas the initial drug concentration (the extrapolated concentration at zero time) of the drug after intravenous injection was calculated by back-extrapolation of the plasma concentration-time curve to the y-axis.

Where [3] appears, read: LLC-PK1, pH 7.4, L-MDR1 cells, control (absence of verapamil), GE 100 µg/mL, 2 h.
Where [4] appears, read: LLC-PK1, pH 7.4, with verapamil 10 µM, L-MDR1 cells, presence of 10 µM verapamil.
Where [5] appears, read: female, Sprague-Dawley, rat, plasma, po, rats, SLE 500 mg/kg ig once a day for 10 days, day 11 digoxin 0.5 mg/kg or GE 120 mg/kg ig.
Where [6] appears, read: female, Sprague-Dawley, rat, plasma, po, rats, SLE 500 mg/kg ig once a day for 10 days, day 11 digoxin 0.5 mg/kg or GE 120 mg/kg ig, read-out: Tmax.
Where [7] appears, read: female, Sprague-Dawley, rat, plasma, po, rats, SLE 500 mg/kg ig once a day for 10 days, day 11 digoxin 0.5 mg/kg or GE 120 mg/kg ig, read-out: t1/2 (converted).
[8] abbreviates: female, Sprague-Dawley, rat, plasma, po, rats, control: vehicle once a day for 10 days, day 11 digoxin 0.5 mg/kg or GE 120 mg/kg ig.
[9] abbreviates: female, Sprague-Dawley, rat, plasma, po, rats, control: vehicle once a day for 10 days, day 11 digoxin 0.5 mg/kg or GE 120 mg/kg ig, read-out: t1/2 (converted).
Setting [10] is: rats, SLE 500 mg/kg ig once a day for 10 days, day 11 digoxin 0.5 mg/kg or GE 120 mg/kg ig.
Where [11] appears, read: rats, control: vehicle once a day for 10 days, day 11 digoxin 0.5 mg/kg or GE 120 mg/kg ig.

Where two headings read alike, the source gives them in different places. Some results are limits rather than exact numbers.

human MDR1-encoded P-gp (L-MDR1 cells), sequence (P08183 whole entry): as above

As to `C[C@H]1O[C@@H](O[C@H]2[C@@H](O)C[C@H](O[C@H]3[C@@H](O)C[C@H](O[C@H]4CC[C@@]5(C)[C@H](CC[C@@H]6[C@@H]5C[C@@H](O)[C@]5(C)[C@@H](C7=CC(=O)OC7)CC[C@]65O)C4)O[C@@H]3C)O[C@@H]2C)C[C@H](O)[C@@H]1O` [Digoxin, digoxin, reference compound], the values for the efflux ratio at 2 h, 100 µg/mL on P-gp (MDR1) (setting [3]) and at P-gp (MDR1) (setting [4]) were 26.2 and 8.23, respectively. Further, the “Increase of intracellular concentration by SLE” value (“Increase … by SLE” for short) was 2.7 fold in data set [1] (2.0 µg/mL SLE) and 3.6 fold in data set [1] (10.0 µg/mL SLE). For the same molecule, in data set [1] (10 µM verapamil, P<0.05), the “Enhancement of uptake level by verapamil” value was determined as 3.2 fold. For the same molecule, the “Effect of verapamil on uptake” value in the data set with Caco-2 cells is listed as “significantly enhanced”. Moreover, the values for the AUC in data set [2] (setting [5]) and in data set [2] (setting [8]) were 123 ± 52.8 ng·h/mL and 68.3 ± 26 ng·h/mL, respectively. Further, the Cmax in data set [2] (setting [5]) is 22.9 ± 13.7 ng/mL; in data set [2] (setting [8]), 11.8 ± 4.22 ng/mL. Further, the AUC(0-inf) in data set [2] (setting [5]) was determined as 127 ± 52.1 ng·h/mL; in data set [2] (setting [8]), 76.1 ± 30 ng·h/mL. Besides, the MRT inf turned out to be 4.78 ± 0.91 h in data set [2] (setting [5]) and 5.65 ± 2.85 h in data set [2] (setting [8]). Moreover, the Tmax amounted to 3.28 ± 1.73 h in data set [2] (setting [6]) and 2.33 ± 1.03 h in data set [2] (female, Sprague-Dawley, rat, plasma, po, rats, control: vehicle once a day for 10 days, day 11 digoxin 0.5 mg/kg or GE 120 mg/kg ig, read-out: Tmax). Besides, the half-life was 131 ± 52.2 min in data set [2] (setting [7]) and 179 ± 139 min in data set [2] (setting [9]). The Cl_F_obs is 4.49 ± 1.75 L/h in data set [2] (setting [10]) and 7.48 ± 3.09 L/h in data set [2] (setting [11]). For the same molecule, the “Increase of AUC0-τ by 10 continuous days administration of SLE” value in data set [2] (rats, SLE 500 mg/kg x 10 days vs vehicle, digoxin 0.5 mg/kg ig on day 11, P<0.05) is “about 2 fold”.
`CC(C)=CCC[C@](C)(O[C@@H]1O[C@H](CO[C@@H]2OC[C@H](O)[C@H](O)[C@H]2O)[C@@H](O)[C@H](O)[C@H]1O)[C@H]1CC[C@]2(C)[C@@H]1[C@H](O)C[C@@H]1[C@@]3(C)CC[C@H](O[C@@H]4O[C@H](CO)[C@@H](O)[C@H](O)[C@H]4O[C@@H]4O[C@H](CO)[C@@H](O)[C@H](O)[C@H]4O)C(C)(C)[C@@H]3CC[C@]12C` [Rb2, ginsenoside Rb2]: the “Increase … by SLE” value was 2.0 fold in data set [1] (2.0 µg/mL SLE) and 3.7 fold in data set [1] (10.0 µg/mL SLE). Moreover, the “Effect of verapamil on uptake” value with Caco-2 cells is on record as “significantly enhanced”. Besides, in the data set on Caco-2 cells (SLE 2.0 and 10.0 µg/mL, P<0.01), the “Effect of SLE on intracellular concentration” value is on record as “concentration dependently increase”. Also, the figures for the AUC in data set [2] (setting [5]) and in data set [2] (setting [8]) were 21300 ± 6520 ng·h/mL and 15900 ± 3310 ng·h/mL, respectively. In addition, the Cmax in data set [2] (setting [5]) is 586 ± 95.2 ng/mL; in data set [2] (setting [8]), 512 ± 77.8 ng/mL. The AUC(0-inf) stood at 16600 ± 3510 ng·h/mL in data set [2] (setting [5]) and 22600 ± 6120 ng·h/mL in data set [2] (setting [8]). Moreover, the MRT inf in data set [2] (setting [5]) came out at 26.5 ± 6.58 h; in data set [2] (setting [8]), 29.5 ± 2.61 h. The Tmax in data set [2] (setting [6]) stood at 10 ± 2.83 h. Further, the half-life is 1460 ± 505 min in data set [2] (setting [7]) and 1210 ± 220 min in data set [2] (setting [9]). For the same molecule, the AUCINF_obs is 22557 ± 6121 ng·h/mL in data set [2] (setting [10]) and 16600 ± 3511 ng·h/mL in data set [2] (setting [11]). Further, the Cl_F_obs in data set [2] (setting [10]) worked out at 0.0047 ± 0.0011 L/h; in data set [2] (setting [11]) it was 0.0062 ± 0.0013 L/h. Moreover, the “Increase of AUC (AUC0-∞) by 10 continuous days administration of SLE” value in data set [2] (rats, SLE 500 mg/kg x 10 days vs vehicle, GE ig on day 11) was 1.33 fold.
For the molecule `CC(C)=CCC[C@](C)(O[C@@H]1O[C@H](CO[C@@H]2O[C@@H](CO)[C@H](O)[C@H]2O)[C@@H](O)[C@H](O)[C@H]1O)[C@H]1CC[C@]2(C)[C@@H]1[C@H](O)C[C@@H]1[C@@]3(C)CC[C@H](O[C@@H]4O[C@H](CO)[C@@H](O)[C@H](O)[C@H]4O[C@@H]4O[C@H](CO)[C@@H](O)[C@H](O)[C@H]4O)C(C)(C)[C@@H]3CC[C@]12C` [Rc, ginsenoside Rc], the results for the efflux ratio at 2 h, 100 µg/mL at P-gp (MDR1) (setting [3]) and on P-gp (MDR1) (setting [4]) were greater than 3.5 and 1.42, respectively. The “Increase … by SLE” value in data set [1] (2.0 µg/mL SLE) came out at 1.9 fold; in data set [1] (10.0 µg/mL SLE), 3.5 fold. The “Increase of AUC (AUC0-∞) by 10 continuous days administration of SLE” value in data set [2] (female, Sprague-Dawley, rat, in vivo) was found to be 1.16 fold. This molecule returned a t1/2 in data set [2] (female, Sprague-Dawley, rat, in vivo, po) of 20.81 ± 9.64 h. In addition, in data set [2] (female, Sprague-Dawley, rat, in vivo, po, Tmax), the Tmax came to 11.2 ± 1.79 h. The half-life in data set [2] (female, Sprague-Dawley, rat, in vivo, po, t1/2) is 1600 ± 185 min.
